Read-outs that look alike come from different tables or passages of the source.
Assay: Plasma pharmacokinetics, multiple-ascending-dose phase 1 study
Format: in vivo, human
Settings: human, plasma; for Vd/F: read-out: Vz/F,ss
Procedure: This study was conducted in full accordance with the Declaration of Helsinki and good clinical practices (GCP) at Quintiles Phase One Services in Overland Park, KS. Subjects were randomized in a 4:1 fashion (8 active:2 placebo) in each cohort to receive 200 mg, 400 mg, or 600 mg of CRS3123 or matching placebo every 12 h for 10 days (https://clinicaltrials.gov/ct2/show/NCT02106338). Subjects fasted 1 h before and 2 h after administration of the study product with a minimum of 8 oz. (240 ml) of water. Water and noncaffeinated drinks (except grapefruit juice) during the study were not restricted. Informed consent was obtained before any study-related procedures and clinical evaluations were performed. All 30 randomized subjects completed the study; 24 subjects received CRS3123 and 6 subjects received placebo. There were no premature withdrawals or discontinuations.
After a screening period of up to 35 days, eligible subjects were admitted to the study center for baseline evaluations on day −1. On the morning of day 1, eligible subjects were randomized to receive either the study drug or placebo orally every 12 h through day 10. Subjects remained inpatient at the study center until discharge on day 12. During the inpatient period, subjects were monitored for safety and pharmacokinetics (PK). Subjects were followed for 2 additional outpatient visits at the study center, on days 18 ± 2 and 29 ± 2.
PK method development, validation, and sample testing for plasma, feces, and urine were performed at KCAS, LLC (Shawnee, KS). Plasma, urine, and fecal concentrations of CRS3123 were determined by means of validated, sensitive, and specific high-performance liquid chromatography/tandem mass spectrometric (HPLC-MS/MS) assays. The lower limits of quantification of CRS3123 in plasma, feces, and urine were 10.0 ng/ml, 60.0 ng/g, and 100.0 ng/ml, respectively. The validated urine PK assay measured total free CSR3123. Since the majority of urinary CRS3123 was excreted as glucuronide conjugates ([32]), an enzymatic cleavage step using glucuronidase was added to the process to convert the glucuronide conjugates to free CRS3123 for the urine analysis.
The PK population consisted of all subjects who received active study drug (CRS3123) and had at least one measured CRS3123 concentration at a scheduled PK time point after the start of study drug administration.
Pharmacokinetic parameters for plasma were derived using noncompartmental methods with Phoenix WinNonlin version 6.4 (Pharsight Corporation, Certara L.P., Princeton, NJ). PK parameters for urine and feces were derived using SAS version 9.4 (SAS Institute, Inc., Cary, NC). All statistical calculations and reporting were performed using SAS version 9.4. Graphics were prepared with SAS version 9.4 or SigmaPlot 12.5 (Systat Software, Inc., San Jose, CA).
(i) Plasma PK. Plasma concentrations of CRS3123 throughout the 12-h dosing interval on PK days (day 1 and day 10) were summarized using descriptive statistics for each treatment.
One-way analysis of variance (ANOVA) models were used to assess any differences in appropriate PK parameters between adjacent dose levels following a single dose (day 1) and multiple doses (day 10). An ANOVA model on the log-transformed PK parameters (AUC0–12 and Cmax on day 1; AUC0–tau and Cmax on day 10) with fixed effect for treatment was performed separately for the single-dose analysis and multiple-dose analysis. From these models, the least-squares (LS) means together with 95% confidence intervals (Cis) for each dose and the LS means with corresponding 90% CIs for all adjacent dose pairs were calculated. Transformed back from the logarithmic scale, geometric LS means with corresponding 90% CIs were provided for each dose and adjacent dose ratios following both single and multiple dosing. PK accumulation was presented using descriptive statistics, and achievement of steady state was assessed graphically. […]

Question: For `O=c1cc(NCCCN[C@@H]2CCOc3c(Br)cc(Br)cc32)[nH]c2ccsc12` [CRS3123], which half-life (oral, 400 mg, 400 mg Q12h, day 10, geometric mean, read-out: Plasma t1/2,ss (converted)) is on record?
Answer: Its half-life is 5.19 h.

Question: What about the Vd/F (oral, 400 mg, 400 mg Q12h, day 10, geometric mean) of the same compound?
Answer: Its Vd/F is 937 L.

Question: And the Cmax (oral, 400 mg, 400 mg Q12h, day 10, median, read-out: Plasma Cmax,ss)?
Answer: The Cmax was 603 ng/mL.

Question: And the Vd/F (oral, 400 mg, 400 mg Q12h, day 10, median)?
Answer: Its Vd/F is 917 L.

Question: And the half-life (oral, 600 mg, 600 mg Q12h, day 1, geometric mean, read-out: Plasma t1/2 (converted))?
Answer: The half-life was 3.04 h.

Question: And the Cmax (oral, 600 mg, 600 mg Q12h, day 1, median, read-out: Plasma Cmax)?
Answer: The Cmax was 642 ng/mL.

Question: And the half-life (oral, 600 mg, 600 mg Q12h, day 10, geometric mean, read-out: Plasma t1/2,ss (converted))?
Answer: The half-life was 6.32 h.

Question: What about the Vd/F (oral, 600 mg, 600 mg Q12h, day 10, geometric mean) of the same compound?
Answer: The Vd/F was 1400 L.

Question: What about the Cmax (oral, 600 mg, 600 mg Q12h, day 10, median, read-out: Plasma Cmax,ss) of the same compound?
Answer: Its Cmax is 674 ng/mL.

Question: And the Vd/F (oral, 600 mg, 600 mg Q12h, day 10, median)?
Answer: The Vd/F was 1410 L.

Question: What about the Tmax (oral, 600 mg, after first dose, day 1, range across the 3 dose groups (200, 400, 600 mg), read-out: median time to maximum concentration (Tmax)) of the same compound?
Answer: Its Tmax is 7200 to 10800 s.

Question: What about the half-life (oral, after 10 days twice-daily, range across the three dose groups, read-out: geometric mean t1/2,ss) of the same compound?
Answer: Its half-life is 5 to 6 h.

Question: What about the Tmax (oral, after 10 days twice-daily, range across the three dose groups, read-out: median Tmax at steady state (Tmax,ss)) of the same compound?
Answer: Its Tmax is 3600 to 7200 s.

Question: What about the half-life (oral, after first dose, day 1, range across the 3 dose groups, read-out: geometric mean half-life (t1/2)) of the same compound?
Answer: Its half-life is 3 to 4 h.

Question: What about the AUC(0-t) (oral, 200 mg Q12h, day 1, median, read-out: Plasma AUC(0-12)) of the same compound?
Answer: Its AUC(0-t) is 1230 ng·h/mL.

Question: What about the AUC (oral, 200 mg Q12h, day 10, median, read-out: Plasma AUC(0-tau)) of the same compound?
Answer: The AUC was 2470 ng·h/mL.

Question: And the AUC(0-t) (oral, 400 mg Q12h, day 1, median, read-out: Plasma AUC(0-12))?
Answer: Its AUC(0-t) is 2510 ng·h/mL.

Question: And the AUC (oral, 400 mg Q12h, day 10, median, read-out: Plasma AUC(0-tau))?
Answer: The AUC was 3310 ng·h/mL.

Question: And the AUC(0-t) (oral, 600 mg Q12h, day 1, median, read-out: Plasma AUC(0-12))?
Answer: Its AUC(0-t) is 3630 ng·h/mL.

Question: And the AUC (oral, 600 mg Q12h, day 10, median, read-out: Plasma AUC(0-tau))?
Answer: The AUC was 3740 ng·h/mL.

Question: What about the Cmax (po, 200 mg, 200 mg Q12h oral, day 1, geometric mean (%CV), read-out: Plasma Cmax) of the same compound?
Answer: Its Cmax is 352 ng/mL.

Question: And the Tmax (po, 200 mg, 200 mg Q12h oral, day 1, median (minimum, maximum), read-out: Plasma Tmax)?
Answer: The Tmax was 7200 s.

Question: And the half-life (po, 200 mg, 200 mg Q12h oral, day 1, median (minimum, maximum), read-out: Plasma t1/2 (converted))?
Answer: Its half-life is 2.96 h.

Question: What about the Cmax (po, 200 mg, 200 mg Q12h oral, day 10, geometric mean (%CV), read-out: Plasma Cmax,ss) of the same compound?
Answer: The Cmax was 470 ng/mL.

Question: And the Tmax (po, 200 mg, 200 mg Q12h oral, day 10, median (minimum, maximum), read-out: Plasma Tmax,ss)?
Answer: Its Tmax is 5400 s.

Question: What about the half-life (po, 200 mg, 200 mg Q12h oral, day 10, median (minimum, maximum), read-out: Plasma t1/2,ss (converted)) of the same compound?
Answer: Its half-life is 4.59 h.

Question: What about the Cmax (po, 400 mg, 400 mg Q12h oral, day 1, geometric mean (%CV), read-out: Plasma Cmax) of the same compound?
Answer: The Cmax was 507 ng/mL.

Question: What about the Tmax (po, 400 mg, 400 mg Q12h oral, day 1, median (minimum, maximum), read-out: Plasma Tmax) of the same compound?
Answer: The Tmax was 10800 s.

Question: And the half-life (po, 400 mg, 400 mg Q12h oral, day 1, median (minimum, maximum), read-out: Plasma t1/2 (converted))?
Answer: Its half-life is 3.61 h.

Question: What about the Cmax (po, 400 mg, 400 mg Q12h oral, day 10, geometric mean (%CV), read-out: Plasma Cmax,ss) of the same compound?
Answer: Its Cmax is 615 ng/mL.

Question: What about the Tmax (po, 400 mg, 400 mg Q12h oral, day 10, median (minimum, maximum), read-out: Plasma Tmax,ss) of the same compound?
Answer: The Tmax was 7200 s.

Question: And the half-life (po, 400 mg, 400 mg Q12h oral, day 10, median (minimum, maximum), read-out: Plasma t1/2,ss (converted))?
Answer: Its half-life is 5.01 h.

Question: What about the Cmax (po, 600 mg, 600 mg Q12h oral, day 1, geometric mean (%CV), read-out: Plasma Cmax) of the same compound?
Answer: Its Cmax is 654 ng/mL.

Question: What about the Tmax (po, 600 mg, 600 mg Q12h oral, day 1, median (minimum, maximum), read-out: Plasma Tmax) of the same compound?
Answer: The Tmax was 7200 s.

Question: What about the half-life (po, 600 mg, 600 mg Q12h oral, day 1, median (minimum, maximum), read-out: Plasma t1/2 (converted)) of the same compound?
Answer: Its half-life is 2.85 h.

Question: And the Cmax (po, 600 mg, 600 mg Q12h oral, day 10, geometric mean (%CV), read-out: Plasma Cmax,ss)?
Answer: Its Cmax is 731 ng/mL.

Question: And the Tmax (po, 600 mg, 600 mg Q12h oral, day 10, median (minimum, maximum), read-out: Plasma Tmax,ss)?
Answer: Its Tmax is 3600 s.

Question: What about the half-life (po, 600 mg, 600 mg Q12h oral, day 10, median (minimum, maximum), read-out: Plasma t1/2,ss (converted)) of the same compound?
Answer: The half-life was 6.1 h.

Question: What about the AUC(0-t) (200 mg Q12h oral, day 1, geometric mean (%CV), read-out: Plasma AUC (AUC0–12)) of the same compound?
Answer: Its AUC(0-t) is 1550 ng·h/mL.

Question: What about the AUC (200 mg Q12h oral, day 10, geometric mean (%CV), read-out: Plasma AUC (AUC0–tau)) of the same compound?
Answer: The AUC was 2500 ng·h/mL.

Question: What about the AUC(0-t) (400 mg Q12h oral, day 1, geometric mean (%CV), read-out: Plasma AUC (AUC0–12)) of the same compound?
Answer: Its AUC(0-t) is 2340 ng·h/mL.

Question: And the AUC (400 mg Q12h oral, day 10, geometric mean (%CV), read-out: Plasma AUC (AUC0–tau))?
Answer: Its AUC is 3200 ng·h/mL.

Question: And the AUC(0-t) (600 mg Q12h oral, day 1, geometric mean (%CV), read-out: Plasma AUC (AUC0–12))?
Answer: Its AUC(0-t) is 3560 ng·h/mL.

Question: What about the AUC (600 mg Q12h oral, day 10, geometric mean (%CV), read-out: Plasma AUC (AUC0–tau)) of the same compound?
Answer: Its AUC is 4030 ng·h/mL.
